≈ marks a conversion by molar mass, not a printed value.
How the values were obtained:
COX-2 = target: T1, COX-2 (Mus musculus, UniProt Q05769); assay: Evaluation of COX-2 activity: PGE2 formation in aspirin-treated, LPS-stimulated mouse peritoneal macrophages; format: cell-based
T1 sequence (Q05769 18-604): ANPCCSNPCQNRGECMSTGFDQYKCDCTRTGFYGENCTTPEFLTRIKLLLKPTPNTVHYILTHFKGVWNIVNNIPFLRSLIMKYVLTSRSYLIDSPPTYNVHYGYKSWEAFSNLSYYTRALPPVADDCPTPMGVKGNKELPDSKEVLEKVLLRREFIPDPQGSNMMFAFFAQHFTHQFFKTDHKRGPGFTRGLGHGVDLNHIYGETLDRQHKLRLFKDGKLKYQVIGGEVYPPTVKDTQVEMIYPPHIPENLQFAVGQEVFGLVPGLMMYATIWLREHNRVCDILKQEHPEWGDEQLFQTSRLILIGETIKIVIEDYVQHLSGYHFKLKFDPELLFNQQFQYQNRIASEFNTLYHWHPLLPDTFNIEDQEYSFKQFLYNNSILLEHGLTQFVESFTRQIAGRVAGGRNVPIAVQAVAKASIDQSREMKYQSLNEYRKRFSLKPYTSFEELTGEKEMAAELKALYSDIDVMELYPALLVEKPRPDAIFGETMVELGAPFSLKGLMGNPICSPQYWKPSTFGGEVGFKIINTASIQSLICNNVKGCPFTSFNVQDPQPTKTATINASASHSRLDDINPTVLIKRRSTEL
Outline: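 PGE2 output, quantified by radio- or enzyme-immunoassay, was read after 10 min exposure of cells to compound with 10 μM arachidonic acid. Cells were mouse peritoneal macrophages, COX-1 knocked out with 500 μM aspirin and COX-2 induced by 10 μg/ml LPS over 16 h. IC50 derived from 4–5 concentrations.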

male SD rats = assay: Antiinflammatory potency by adjuvant arthritis (AA); format: in vivo; conditions: daily oral dose day 14 to day 22, rat
Experimental: Arthritis was induced in male SD rats weighing 180-200 g by subcutaneous injection of Mycobacterium butyricum mixed in 0.1 ml of incomplete Freund's adjuvanat into the base of the tail. The foot volumes were measured using a displacement plethysomometer 14 days after the injection of the adjuvant. Animals with paw volumes greater than the normal paw volumes (without the adjuvant treatment) by 0.37 ml were selected, and then randomized. A designated daily dose of a compound of this invention, which was suspended in 1% aqueous methylcellulose solution, was administered to the randomized rats with arthritis by oral gavage daily once beginning on day 14 after the injection of the adjuvant. The administration of the compound continued till day 22 after the injection of the adjuvant, and the paw volumes were measured on daily basis using a displacement plethysmometer.
% Inhibition of AA=(1−Δtreated/Δcontrol)×100
wherein Δtreated=[(paw volume at day 22)/(paw volume at day 14)−1] for a drug-administered rat, and Δcontrol=[(paw volume at day 22)/(paw volume at day 14)−1] for a rat without drug administration.
ED50 value was determined b a dose-response curve for each compound.

[1] = tested on: male Sprague-Dawley (SD) rats; assay: Carrageenan-induced foot edema in rats (CFE); format: in vivo; conditions: oral dose 3 mg/kg body weight, rat, paw volume 3 hours after Carrageenan
Experimental: An appropriate amount of a compound of this invention suspended in 1% methylcellulose (MC) solution was administered to male Sprague-Dawley (SD) rats weighing 150˜200 g by oral gavage. The volume of the administered vehicle for a compound of this invention was controlled to be smaller than 10 ml/kg body weight of the animal. One hour later, 0.1 ml of 1% Carrageenan saline solution was directly injected into the right paw of the rats to induce edema in the paw. The paw volumes at 0 hour and at 3 hours after the injection of Carrageenan were measured by using a displacement plethysmometer (Ugo Basile, Italy). The paw volumes were used to calculate % inhibition of CFE by an amount of a compound of this invention according to the following equation.
% Inhibition of CFE=(1−Δtreated/Δcontrol)×100
wherein Δtreated=[paw volume at three hours after the Carrageenan injection−paw volume right after Carrageenan injection] for a drug-administered rat, and Δcontrol=[paw volume at three hours after the Carrageenan injection−paw volume right after Carrageenan injection] for a rat without drug administration.
In order to determine the inhibitory activity of a compound of this invention at a dose, usually 5 to 8 animals were used both for drug-treated group and for control group.

melting point | IC50, μg/ml COX-2 (COX-2) | Structure (SMILES) | Adjuvant Arthritis ED50 (male SD rats) | % Inhibition (CFE) [1]
194 to 195 °C | 0.014 µg/mL (≈ 0.0371 µM) | CC1(C)OC(c2ccc(S(N)(=O)=O)cc2)=C(c2cccc(Cl)c2)C1=O [Example 126] | 0.03 mg/kg body weight | 39%
95 to 97 °C | 0.03 µg/mL (≈ 0.0791 µM) | CC1(C)OC(c2ccc(S(N)(=O)=O)cc2F)=C(c2ccc(F)cc2)C1=O [Example 334] | 0.09 mg/kg body weight | 37%
141 to 142 °C | 0.05 µg/mL (≈ 0.132 µM) | CC1(C)OC(c2ccc(S(C)(=O)=O)cc2)=C(c2cc(F)cc(F)c2)C1=O [Example 11, 4-(3,5-Difluorophenyl)-2,2-dimethyl-5-{4-(methylsulfonyl)phenyl}-3(2H)-furanone] | 0.03 mg/kg body weight | 
 | 0.0067 µg/mL (≈ 0.0185 µM) | CC1(C)OC(c2ccc(S(N)(=O)=O)cc2)=C(c2cccc(F)c2)C1=O [Example 129, 5-{4-(aminosulfonyl)phenyl}-2,2-dimethyl-4-(3-fluorophenyl)-3(2H)-furanone] | 0.02 mg/kg body weight | 47%
178 to 179 °C | 0.02 µg/mL (≈ 0.0555 µM) | CC1(C)OC(c2ccc(S(C)(=O)=O)cc2)=C(c2cccc(F)c2)C1=O [Example 4, 2,2-Dimethyl-4-(3-fluorophenyl)-5-{4-(methylsulfonyl)phenyl}-3(2H)-furanone] | 0.07 mg/kg body weight | 36%

Source: patent US6492416B1, “4,5-diaryl-3(2H)-furanone derivatives as cyclooxygenase-2 inhibitors” (Pacific Corporation, priority 1999, dated 2002)
